# Assay results published in patent US10125100B2, “Kinase inhibitors” (Respivert Limited, priority 2014, dated 2018).
# Assays:
# p38 MAPKα (MAPK14) = p38 MAPKα (MAPK14) (Homo sapiens (Human), UniProt Q16539); assay: p38 MAPKα enzyme inhibition (Method 2), Z-LYTE FRET; type: biochemical
# Procedure, shortened: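 Enzyme (200 ng/mL solution) was preincubated 2 h at RT with compound solutions of 1, 0.1, 0.01 or 0.001 μg/mL, and inhibition was read indirectly via MAPKAP-K2 activation/phosphorylation. After a 1 h RT reaction and 1 h protease development, phosphorylation was derived from the coumarin/fluorescein emission ratio.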
# c-Src = c-Src (Homo sapiens (Human), UniProt P12931); assay: c-Src enzyme inhibition, Z-LYTE FRET; type: biochemical
# Sequence of c-Src (P12931 whole entry, looked up): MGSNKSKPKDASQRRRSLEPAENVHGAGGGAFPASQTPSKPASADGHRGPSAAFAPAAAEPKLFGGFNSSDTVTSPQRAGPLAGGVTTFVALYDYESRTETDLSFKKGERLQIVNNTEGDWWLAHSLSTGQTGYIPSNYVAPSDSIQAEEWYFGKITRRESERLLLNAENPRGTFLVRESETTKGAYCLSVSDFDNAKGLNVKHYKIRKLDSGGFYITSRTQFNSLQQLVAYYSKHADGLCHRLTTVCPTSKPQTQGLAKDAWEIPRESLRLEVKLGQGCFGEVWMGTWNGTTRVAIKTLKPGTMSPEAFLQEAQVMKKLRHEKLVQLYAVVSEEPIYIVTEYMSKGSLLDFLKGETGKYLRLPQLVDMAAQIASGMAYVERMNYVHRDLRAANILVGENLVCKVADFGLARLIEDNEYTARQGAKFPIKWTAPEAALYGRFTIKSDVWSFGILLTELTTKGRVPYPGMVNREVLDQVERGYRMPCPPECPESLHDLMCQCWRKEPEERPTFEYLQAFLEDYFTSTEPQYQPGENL
# Procedure, shortened: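 Z-LYTE FRET peptide phosphorylation read as donor coumarin over acceptor fluorescein ratio after 1 hr protease development. Compounds (1–0.001 μg/mL) preincubated 2 hr at RT with enzyme; ATP solutions 60 μM for Syk, 800 μM for c-Src; kinase reaction 1 hr.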
# B-Raf = B-Raf (Homo sapiens (Human), UniProt P15056); assay: KINOMEscan binding of kinase to standard ligand; conditions: KINOMEscan technology
# Sequence of B-Raf (P15056 whole entry): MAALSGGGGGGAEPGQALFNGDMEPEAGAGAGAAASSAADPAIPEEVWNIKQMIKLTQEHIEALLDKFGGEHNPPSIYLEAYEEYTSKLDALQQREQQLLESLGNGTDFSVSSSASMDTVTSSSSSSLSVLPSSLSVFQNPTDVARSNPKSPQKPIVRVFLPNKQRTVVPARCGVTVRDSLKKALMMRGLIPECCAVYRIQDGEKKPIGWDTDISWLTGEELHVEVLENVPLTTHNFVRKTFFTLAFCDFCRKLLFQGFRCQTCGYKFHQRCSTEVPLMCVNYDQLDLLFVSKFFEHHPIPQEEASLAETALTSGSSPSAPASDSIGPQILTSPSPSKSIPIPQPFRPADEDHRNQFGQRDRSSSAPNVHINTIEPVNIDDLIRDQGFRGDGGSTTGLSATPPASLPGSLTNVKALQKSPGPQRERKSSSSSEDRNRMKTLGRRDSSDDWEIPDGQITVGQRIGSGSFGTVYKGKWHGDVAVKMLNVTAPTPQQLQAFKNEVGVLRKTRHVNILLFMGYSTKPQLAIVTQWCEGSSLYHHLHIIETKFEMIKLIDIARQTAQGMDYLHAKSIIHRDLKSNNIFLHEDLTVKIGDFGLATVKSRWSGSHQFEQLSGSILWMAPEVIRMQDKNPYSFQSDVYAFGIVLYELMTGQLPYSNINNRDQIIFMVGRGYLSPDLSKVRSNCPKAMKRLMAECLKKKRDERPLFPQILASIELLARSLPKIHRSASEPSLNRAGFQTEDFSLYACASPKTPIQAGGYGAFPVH
# Text: (§1) These assays may be conducted by DiscoverX (formerly Ambit; San Diego, Calif.).
# B-Raf (V600E) = B-Raf (V600E) (Homo sapiens (Human), UniProt P15056, V600E); assay: KINOMEscan binding of kinase to standard ligand; conditions: KINOMEscan technology
# Sequence of B-Raf (V600E) (P15056 whole entry V600E): as the sequence (P15056 whole entry) above, with V600E counted along it
# Text: as §1
# Syk = Syk (Homo sapiens (Human), UniProt P43405); assay: Syk enzyme inhibition, Z-LYTE FRET; type: biochemical
# Procedure, shortened: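 Syk or c-Src enzyme (3000 or 2000 ng/mL solutions) was preincubated 2 h at RT with compound solutions at 1, 0.1, 0.01 or 0.001 µg/mL. Z-LYTE FRET peptide (8 µM solution) and ATP (800 µM solution for c-Src, 60 µM for Syk) were then added for 1 h, followed by protease development for 1 h. Phosphorylation was read as the coumarin/fluorescein emission ratio.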
# non-mutant kinases = assay: KinomeScan selectivity scores; type: binding; conditions: for number of individual kinase hits S(1): % Ctrl <1; for number of individual kinase hits S(10): % Ctrl <10; for number of individual kinase hits S(35): % Ctrl <35; for KinomeScan Selectivity Score S(10): non-mutant kinases with % Ctrl <10 / kinases tested; for KinomeScan Selectivity Score S(35): non-mutant kinases with % Ctrl <35 / kinases tested
# Text: as §1
# [1] = Hydrolytic stability study; type: physicochemical; conditions: DMSO/water (3:1); for % Parent Remaining: 1 mg/mL
# Protocol: Chemical stability of compounds of the invention was assessed in a mixture of DMSO and water (3:1) at a test compound concentration of 1 mg/mL.
# General HPLC Procedure • Agilent, Waters X-Select C18, 2.5 μm, 4.6×30 mm column, 4 min method, 5-95% MeCN/water (0.1% formic acid). Flow rate 2.5 mL/min. Column Oven Temperature 40° C. Detection 254 nm.
# Sample Preparation • A 1.0 mg sample of test compound was dissolved in 750 μL of DMSO. Water (250 μL) was added slowly, ensuring no precipitation occurred.
# Recording Stability • A 50 μL aliquot of the test solution was removed and analysed in duplicate by 5 μL HPLC injections. The peak area for the test compound was recorded following manual integration of the corresponding UV trace. • The test solution was heated to 60° C., with stirring, and 50 μL aliquots removed for HPLC analysis at 5 and 24 h timepoints.
# Jurkat cells = assay: (r) Cell cytotoxicity assay; type: cell-based, human; conditions: 24 hours
# Procedure, shortened: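 Viability read by flow cytometry as the fraction of propidium iodide-negative cells (7.5 μg/mL PI, 15 min), relative to 1.0% DMSO control. Beforehand, 1×10^5 Jurkat cells in RPMI/10% FBS were treated 24 h at 37° C., 5% CO2 with test compound at final 20, 5 or 1 μg/mL.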
# [2] = tested on: Escherichia coli, WP2 uvrA; assay: Bacterial reverse mutation screen; conditions: for mutagenic effects (revertant numbers): plate incorporation, presence and absence of S-9 mix
# [3] = tested on: Salmonella typhimurium, strains TA1535, TA1537, TA98 and TA100; assay: Bacterial reverse mutation screen; conditions: for toxicity of the test item to the bacteria (mean colony count): at the highest doses (500-5000 μg/plate) in some strains; for mutagenic effects (revertant numbers): plate incorporation, presence and absence of S-9 mix
# [4] = tested on: eyes of albino New Zealand White rabbits
# [5] = Stability of pharmaceutical formulations; type: physicochemical
# Protocol: The samples were sonicated to achieve clear solutions having the following properties: Osmolality (mOsm/kg): 310 (Na), 314 (HCl); pH: 7.00 (Na), 7.05 (HCl). 0.5 mL of the stock solutions were diluted to 1 mL with 20% DMSO in water & injected for purity analysis by HPLC. The remaining stock solutions were then split into aliquots of 0.5 mL in HPLC vials, and stored at various conditions in duplicate. Samples were stored at 5 and 25° C., before being analysed by HPLC at 1, 2 and 4 weeks. Separate samples were stored at 40° C. and analysed at 4 weeks.
# mitosis in PBMCs = assay: (g) Cell mitosis assay; type: cell-based; conditions: Homo sapiens, PBMC, 5 μg/mL
# Procedure, shortened: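 Healthy-donor PBMCs stimulated with 2% PHA for 48 hr, then exposed to test compounds at varying concentrations for 20 hr; demecolcine (0.1 μg/mL) added 2 hr before collection for metaphase arrest. Cells fixed/permeabilized, stained with anti-phospho-histone 3 and propidium iodide; mitotic cells counted by flow cytometry gating on lymphocytes.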
# [6] = tested on: LPS-stimulated Lewis rats; assay: (vi) Endotoxin-induced uveitis in rats; type: in vivo, rat
# Protocol: Male, Lewis rats (6-8 weeks old, Charles River UK Limited) are housed in cages of 3 at 19-21° C. with a 12 h light/dark cycle (07:00/19:00) and fed a standard diet of rodent chow and water ad libitum. Non-fasted rats are weighed, individually identified on the tail with a permanent marker, and receive a single intravitreal administration into the right vitreous humor (5 μL dose volume) of 100 ng/animal of LPS (Escherichia coli 0111:B4 prepared in PBS, Sigma Aldrich, UK) using a 32-gauge needle. Untreated rats are injected with PBS. Test compound or vehicle (4% polyoxyl 40 stearate, 4% mannitol in PBS ([…])) are administered by the topical route onto the right eye (10 μL) of animals 1 hour prior to LPS, at the time of LPS administration, and 1, 2 and 4 hours post LPS administration. Before administration, the solution to be administered is sonicated to ensure a clear solution. 6 hours after LPS dosing, animals are euthanized by overdose with pentobarbitone (via cardiac puncture). Immediately after euthanasia, 10 μL of aqueous humor is collected from the right eye of the rats by puncture of the anterior chamber using a 32 gauge needle under a surgical microscope. The aqueous humor is diluted in 20 μL of PBS and total cell counts are measured immediately using a Countess automated cell counter (Invitrogen). Following collection of the aqueous humour, the right eye of each animal is enucleated and dissected into front (anterior) and back (posterior) sections around the lens. Each section is weighed and homogenised in 500 μL of sterile phosphate buffered saline followed by 20 minutes centrifugation at 12000 rpm at 4° C. The resulting supernatant is divided into 3 aliquots and stored at −80° C. until subsequent cytokine analysis by R&D DuoSet ELISA.
# [7] = sodium (Na) salt, 1 mg/mL in 10 mM pH 7.2 phosphate buffer, 4.5% mannitol, 3% polyoxyl 40 stearate
# [8] = rats treated with intravitreal endotoxin LPS
# Sequence of p38 MAPKα (MAPK14) (Q16539 whole entry): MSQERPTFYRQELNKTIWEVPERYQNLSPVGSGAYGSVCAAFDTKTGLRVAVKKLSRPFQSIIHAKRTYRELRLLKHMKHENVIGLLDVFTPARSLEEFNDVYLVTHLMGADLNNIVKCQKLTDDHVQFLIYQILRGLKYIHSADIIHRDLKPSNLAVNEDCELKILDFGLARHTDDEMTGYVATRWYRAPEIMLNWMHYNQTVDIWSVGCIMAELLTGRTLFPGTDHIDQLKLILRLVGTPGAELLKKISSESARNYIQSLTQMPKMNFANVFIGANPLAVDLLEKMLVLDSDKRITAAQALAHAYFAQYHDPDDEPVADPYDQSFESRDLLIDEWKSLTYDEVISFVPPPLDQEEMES
smiles,measurement,setting,value
"COc1cc(Nc2cc(Oc3ccc(NC(=O)Nc4cc(C(C)(C)C)cc(NS(C)(=O)=O)c4OC)c4ccccc34)ccn2)cc(OC)c1C(=O)NCCOCCOCCOP(=O)(O)O [Example 47, 2-(2-(2-(4-((4-((4-(3-(5-(tert-butyl)-2-methoxy-3-(methylsulfonamido)phenyl)ureido)-naphthalen-1-yl)oxy)pyridin-2-yl)amino)-2,6-dimethoxybenzamido)ethoxy)ethoxy)ethyl dihydrogen phosphate]",IC50,p38 MAPKα (MAPK14),0.004 µM
same,IC50,c-Src,0.015 µM
same,effect on the binding of B-Raf to its standard ligand,B-Raf,did not have any significant effect
same,effect on the binding of B-Raf (V600E) to its standard ligand,B-Raf (V600E),did not have any significant effect
same,IC50,Syk,0.008 µM
same,number of individual kinase hits S(1),non-mutant kinases; 50 nM,0
same,number of individual kinase hits S(10),non-mutant kinases; 50 nM,17
same,number of individual kinase hits S(35),non-mutant kinases; 50 nM,55
same,KinomeScan Selectivity Score S(10),non-mutant kinases; 50 nM,0.042
same,KinomeScan Selectivity Score S(35),non-mutant kinases; 50 nM,0.136
same,number of individual kinase hits S(1),non-mutant kinases; 500 nM,30
same,number of individual kinase hits S(10),non-mutant kinases; 500 nM,90
same,number of individual kinase hits S(35),non-mutant kinases; 500 nM,128
same,KinomeScan Selectivity Score S(1),"non-mutant kinases; 500 nM, non-mutant kinases with % Ctrl <1 / kinases tested",0.074
same,KinomeScan Selectivity Score S(10),non-mutant kinases; 500 nM,0.223
same,KinomeScan Selectivity Score S(35),non-mutant kinases; 500 nM,0.318
same,% Parent Remaining,[1]; 0 min,100%
same,% Parent Remaining,"[1]; 60° C., 317 min",104%
same,% Parent Remaining,"[1]; 60° C., 1450 min",89%
same,% Viability at 1 μg/mL,Jurkat cells,91.2%
same,% Viability at 5 μg/mL,Jurkat cells,96.0%
same,% Viability at 20 μg/mL,Jurkat cells,97.8%
"COc1cc(Nc2cc(Oc3ccc(NC(=O)Nc4cc(C(C)(C)C)cc(NS(C)(=O)=O)c4OC)c4ccccc34)ccn2)ccc1C(=O)O [Example 1, 4-((4-((4-(3-(5-(tert-Butyl)-2-methoxy-3-(methylsulfonamido)phenyl)ureido)naphthalen-1-yl)oxy)pyridin-2-yl)amino)-2-methoxybenzoic acid]",mutagenic effects (revertant numbers),[2],absence of any mutagenic effects
same,effect on the binding of B-Raf to its standard ligand,B-Raf,did not have any significant effect
same,effect on the binding of B-Raf (V600E) to its standard ligand,B-Raf (V600E),did not have any significant effect
same,toxicity of the test item to the bacteria (mean colony count),[3],reduction in the mean colony count
same,mutagenic effects (revertant numbers),[3],absence of any mutagenic effects
same,"local tolerability of the formulations, Phase 2",[4]; 3 treatment days,acceptable without any aggravation
same,"local tolerability of the formulations, Phase 1",[4]; after a single dosing day,acceptable
same,"ocular reactions compared with vehicle controls, Phase 1","[4]; one treatment day, 0.1 and 1.0 mg/mL, four daily instillations","no differences in the frequency, severity and incidence"
same,"main ocular reactions, Phase 2","[4]; three consecutive treatment days, 0.1 and 1.0 mg/mL, four daily instillations",limited to conjunctival redness (grade 1)
same,stability in solution,"[5]; 1 mg/mL formulation, 5° C., up to 4 weeks",stable
same,pH of solution,"[5]; hydrochloride (HCl) salt, 1 mg/mL in 10 mM pH 7.2 phosphate buffer, 4.5% mannitol, 3% polyoxyl 40 stearate",7.05
same,Osmolality,[5]; [7],310 mOsm/kg
same,pH of solution,[5]; [7],7.00
same,inhibition at 5 µg/mL,mitosis in PBMCs,2.4%
same,IL-1β (pg/mL) Anterior tissue,"[6]; LPS-stimulated rats, topical 0.01 mg/mL, mean ± SEM",980.0 ± 110.8 pg/mL
same,cellular infiltration (cell counts) in the eyes,[6]; [8],significantly and dose-dependently reduced
same,cytokine IL-1β levels in anterior and posterior segments of the eyes,[6]; [8],significantly and dose-dependently reduced
"COc1cc(Nc2cc(Oc3ccc(NC(=O)Nc4cc(C(C)(C)C)cc(NS(C)(=O)=O)c4OC)c4ccccc34)ccn2)ccc1P(C)(=O)O [Example 44, (4-((4-((4-(3-(5-(tert-Butyl)-2-methoxy-3-(methylsulfonamido)phenyl)ureido)naphthalen-1-yl)oxy)pyridin-2-yl)amino)-2-methoxyphenyl)(methyl)phosphinic acid]",IC50,p38 MAPKα (MAPK14),0.011 µM
same,IC50,c-Src,0.02 µM
same,toxicity of the test item to the bacteria (mean colony count),"[2]; 5000 μg/plate in WP2 uvrA, absence of S-9 mix",reduction in the mean colony count
same,mutagenic effects (revertant numbers),[2],absence of any mutagenic effects
same,effect on the binding of B-Raf to its standard ligand,B-Raf,did not have any significant effect
same,effect on the binding of B-Raf (V600E) to its standard ligand,B-Raf (V600E),did not have any significant effect
same,toxicity of the test item to the bacteria (mean colony count),[3],reduction in the mean colony count
same,mutagenic effects (revertant numbers),[3],absence of any mutagenic effects
same,IC50,Syk,0.017 µM
same,% Parent Remaining,[1]; 0 min,100%
same,% Parent Remaining,"[1]; 60° C., 1439 min",98%
same,% Viability at 1 μg/mL,Jurkat cells,93.3%
same,% Viability at 5 μg/mL,Jurkat cells,90.1%
same,% Viability at 20 μg/mL,Jurkat cells,92.2%
"C#Cc1cc(Nc2nccc(Oc3ccc(NC(=O)Nc4cc(C(C)C)nn4-c4ccc(C)cc4)c4ccccc34)n2)cc(C(=O)NCCN2CCOCC2)c1 [Reference Compound B, 3-ethynyl-5-((4-((4-(3-(3-isopropyl-1-(p-tolyl)-1H-pyrazol-5-yl)ureido)naphthalen-1-yl)oxy)pyrimidin-2-yl)amino)-N-(2-morpholinoethyl)benzamide, reference compound]",% Parent Remaining,[1]; 0 min,100%
same,% Parent Remaining,"[1]; 60° C., 297 min",79%
same,% Parent Remaining,"[1]; 60° C., 1429 min",18%
same,decomposition under the conditions of the experiment,[1]; 60° C.,substantial decomposition
